Read-outs that look alike come from different tables or passages of the source.
Key:
GPR84 F187A = target: T1, GPR84 F187A (Homo sapiens, UniProt Q9NQS5, F187A); test: BRET β-arrestin-2 recruitment assay, HEK293T cells; format: cell-based; conditions: for EC50: F187A, read-out: β-arrestin-2 pEC50 ± SEM (converted)
T1 construct: FLAG (N); eYFP (C); expressed in transfected cells; host or cells: HEK293T, transient
Description: (§1) As a control, cells were transfected with 100:1 ratio of empty plasmid and the appropriate arrestin isoform fused to nano-luciferase. After 24 h, cells were seeded at 50,000 cells per well in poly-D-lysine-coated white 96-well plates and incubated at 37°C overnight. After 24 h, cells were washed twice with Hank’s balanced salt solution (HBSS), pH 7.4, and 10 μl/well of the nano-luciferase substrate coelenterazine-h (Nanolight Technologies) was added to a final concentration of 5 μM. Cells were incubated in the dark for 10 min at 37°C, after which 10 μl/well of the agonist compound was added, and the cells were incubated for another 5 minutes. 15 min after coelenterazine-h addition, reading of emission signals were performed on a PHERAstar FS plate reader (BMG Labtech) at 475 and 535 nm, representing nano-luciferase and eYFP emission signals, respectively. The net bioluminescence resonance energy transfer (BRET) ratio (mBRET) was calculated as follows: mBRET=(BRET^sample−BRET^control)*1000whereBRET=Emission^535nm/Emission^475nm

GPR84 L336A = target: T2, GPR84 L336A (Homo sapiens, UniProt Q9NQS5, L336A); test: BRET β-arrestin-2 recruitment assay, HEK293T cells; format: cell-based; conditions: for EC50: L336A, read-out: β-arrestin-2 pEC50 ± SEM (converted)
T2 construct: FLAG (N); eYFP (C); expressed in transfected cells; host or cells: HEK293T, transient
T2 sequence (Q9NQS5 whole entry L336A): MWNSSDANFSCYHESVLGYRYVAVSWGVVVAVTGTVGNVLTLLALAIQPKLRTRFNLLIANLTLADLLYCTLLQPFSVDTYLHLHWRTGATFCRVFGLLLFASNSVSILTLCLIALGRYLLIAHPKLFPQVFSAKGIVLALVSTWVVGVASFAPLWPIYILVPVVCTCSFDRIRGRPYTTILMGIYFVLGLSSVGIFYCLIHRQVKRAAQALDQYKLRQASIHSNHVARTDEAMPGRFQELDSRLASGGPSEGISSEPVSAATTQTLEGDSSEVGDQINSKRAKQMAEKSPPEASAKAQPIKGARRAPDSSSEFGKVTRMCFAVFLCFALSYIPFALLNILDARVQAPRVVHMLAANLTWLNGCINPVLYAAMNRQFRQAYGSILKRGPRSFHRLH
Description: as §1

GPR84-WT = target: T3, GPR84-WT (Homo sapiens, UniProt Q9NQS5); test: BRET β-arrestin-2 recruitment assay, HEK293T cells; format: cell-based; conditions: Extended Data Table 4, read-out: β-arrestin-2 pEC50 ± SEM (converted)
T3 construct: FLAG (N); eYFP (C); expressed in transfected cells; host or cells: HEK293T, transient
T3 sequence (Q9NQS5 whole entry): as the sequence (Q9NQS5 whole entry L336A) above, with A336L counted along it
Description: as §1

GPR84 (wild type) = target: T4, GPR84 (wild type) (Homo sapiens, UniProt Q9NQS5); test: Competition binding assay with orthosteric antagonist [3H]140
T4 construct: expressed in transfected cells; host or cells: Flp-In T-REx 293 cells (membranes, doxycycline-induced)
T4 sequence (Q9NQS5+P04899 fused P04899:C352I): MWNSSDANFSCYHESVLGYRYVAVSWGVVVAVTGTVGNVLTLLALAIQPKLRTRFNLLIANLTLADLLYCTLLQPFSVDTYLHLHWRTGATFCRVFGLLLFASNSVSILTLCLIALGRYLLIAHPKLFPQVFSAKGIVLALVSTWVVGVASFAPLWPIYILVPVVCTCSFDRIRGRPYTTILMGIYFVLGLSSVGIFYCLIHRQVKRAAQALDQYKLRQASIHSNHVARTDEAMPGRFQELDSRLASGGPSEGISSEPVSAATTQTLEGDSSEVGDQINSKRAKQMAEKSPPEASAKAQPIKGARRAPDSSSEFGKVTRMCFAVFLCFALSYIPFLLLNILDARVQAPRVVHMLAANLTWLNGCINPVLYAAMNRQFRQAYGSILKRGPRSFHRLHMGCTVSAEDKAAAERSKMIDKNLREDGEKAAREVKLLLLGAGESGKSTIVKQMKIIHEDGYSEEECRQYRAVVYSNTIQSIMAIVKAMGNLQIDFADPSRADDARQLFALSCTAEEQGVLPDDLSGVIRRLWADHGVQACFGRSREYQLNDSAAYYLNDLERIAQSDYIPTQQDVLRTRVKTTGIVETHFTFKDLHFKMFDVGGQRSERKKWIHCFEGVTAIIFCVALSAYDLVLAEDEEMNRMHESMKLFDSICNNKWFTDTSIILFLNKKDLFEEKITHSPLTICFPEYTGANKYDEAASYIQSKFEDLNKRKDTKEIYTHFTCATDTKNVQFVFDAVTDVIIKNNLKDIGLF
Description: Binding was initiated by the addition of 5 μg membrane protein generated from Flp-In™ T-REx™ cells induced to express the receptor construct of interest with 100 ng/ml doxycycline. Nonspecific binding of the radioligand was determined in the presence of 10 μM compound 837. All assays were performed at 25 °C for 1 h before termination by the addition of ice-cold phosphate-buffered saline (PBS) and vacuum filtration through GF/C glassfibre filter-bottom 96-well microplates using a UniFilter FilterMate Harvester (Revvity). Each well was washed three times with ice-cold PBS and filters were allowed to dry for 2–3 h before addition of 50 μl of Ultima Gold™ XR. Radioactivity was quantified by liquid scintillation spectrometry.

wild type GPR84 = target: T5, wild type GPR84 (Homo sapiens, UniProt Q9NQS5); test: pThr263/pThr264 GPR84 phosphorylation assay (magnetic bead capture); format: cell-based; conditions: for EC50: 5 min stimulation, read-out: pEC50 ± SEM, phosphorylation of Thr263 and Thr264 (converted)
T5 construct: expressed in transfected cells
T5 sequence (Q9NQS5 whole entry): as the sequence (Q9NQS5 whole entry L336A) above, with A336L counted along it
Description: Flp-In™ TREx™ 293 cells engineered to express FLAG-GPR84-eYFP were seeded onto poly-D-lysine-coated clear 96-well plates at a density of 5 x 10^4 cells/well and grown overnight before treatment with 100 ng/ml doxycycline to induce receptor expression. After 24 h, cells were serum starved for 2 hours then stimulated with the indicated agonists, prepared in serum free media, for 5 min at 37 °C. After washing with ice-cold PBS, cells were lysed in 100 μl/well lysis buffer (150 mM NaCl, 50 mM Tris-HCl, 5 mM EDTA, 1% IGEPAL (Nonidet P-40), 0.5% deoxycholic acid, and 0.1% SDS; pH 7.4) supplemented with protease and phosphatase inhibitor cocktail on an orbital shaker for 1 hour at 4 °C. Lysates were cleared by centrifugation at 3700 × g for 20 min at 4 °C and 80 μl of supernatants transferred into 96-U-bottom-well assay plates (Greiner Bio-One). GFP-Trap® magnetic agarose beads (1 μl/well) were washed then diluted in lysis buffer to give a total volume of 20 μl of bead slurry per well before adding to supernatant. Assay plates were incubated on a microplate shaker at 700 rpm for 2 h at 4 °C then washed three times with 100 μl of PBS with 0.1% Tween-20 (PBS-T) under magnetic force using a handheld magnetic separation block (Milliplex, Millipore). After washing, anti-pThr263/pThr264 antiserum was diluted 1:1000 in PBS-T then 60 μl added to assay plate. The plates were then incubated overnight at 4 °C on a microplate shaker. After another wash cycle (3 x with PBS-T), anti-rabbit horseradish […] (HRP)-linked secondary antibody was added to PBS-T to a final dilution of 1:10,000 and incubated on a microplate shaker for 2 h at room temperature. After a further wash cycle, 100 μl of TMB substrate solution was added to each well and the plates were incubated for 15 min. The reaction was stopped by the addition of 100 μl of 0.3 M sulphuric acid. The assay plates were then placed on a magnetic separation block and 100 μl of the supernatant was transferred to a transparent 96-well F-bottom plate. The OD at 450 nm was then read on a PHERAstar FS plate reader (BMG Labtech).

GPR84 [1] = target: T6, GPR84 (Homo sapiens, UniProt Q9NQS5); test: CHO-K1-based PathHunter β-arrestin-2 recruitment assay; format: cell-based; design: host or cells: CHO-K1; conditions: for Emax: read-out: β-arrestin-2 %Emax ± SEM
T6 sequence (Q9NQS5 whole entry): as the sequence (Q9NQS5 whole entry L336A) above, with A336L counted along it
Description: Cells were stimulated with test ligands for 90 min. Compounds were prepared at 5× concentration in DPBS containing 0.1% BSA and 0.125% Tween-80 to minimise aggregation. β-arrestin recruitment was quantified using the PathHunter® β-Arrestin Assay (DiscoverX 93-0001) following the manufacturer’s instructions. Luminescence was recorded after 18 h using a PHERAstar® FS plate reader.

GPR84 [2] = target: T6, GPR84; test: Competition binding kinetics of [3H]140 (on and off rates of unlabeled ligands); design: expressed in transfected cells; host or cells: membranes; conditions: for Kd: read-out: Koff/Kon
Description: The kinetic binding parameters of unlabeled ligands were determined through assessment of the binding kinetics of [^3H]140.[21] […] At the indicated time points, membrane protein was added, and tubes were gently agitated. Three different concentrations of competitor were assessed to ensure that the rate parameters calculated were independent of ligand concentration.

[3] = competition with [3H]140, Fig. 1f, read-out: pKi (converted)

T1 sequence (Q9NQS5 whole entry F187A): as the sequence (Q9NQS5 whole entry L336A) above, with F187A, A336L counted along it

SMILES | EC50 (GPR84 F187A) | efficacy in promoting interaction with β-arrestin-2 (GPR84 F187A; Phe187Ala GPR84, HEK293T) | EC50 (GPR84 L336A) | efficacy in promoting interaction with β-arrestin-2 (GPR84 L336A; Leu336Ala GPR84, HEK293T) | EC50 (GPR84-WT) | Ki (GPR84 (wild type); GPR84-Gi2 fusion protein stable cell line, Extended Data Fig. 7, read-out: pKi (WT) (converted)) | Ki (GPR84 (wild type); [3]) | EC50 (wild type GPR84) | potency and efficacy in promoting phosphorylation of Thr263/Thr264 (wild type GPR84; magnetic bead capture assay) | Emax (GPR84 [1]) | koff (GPR84 [2]) | kon (GPR84 [2]) | Kd (GPR84 [2]; Fig. 1g) | change in efficacy in β-arrestin-2 recruitment (GPR84 [1]; compared to OX04929 (so in the source)) | EC50 (GPR84 [1]; wild type GPR84, CHO-K1 PathHunter, read-out: β-arrestin-2 pEC50 ± SEM (converted)) | koff (GPR84 [2]; Fig. 1g, read-out: Koff (converted)) | kon (GPR84 [2]; Fig. 1g, read-out: Kon (converted))
[O-][n+]1cc(O)cc(CCc2ccc(Cl)c(C(F)(F)F)c2)c1 [OX04529] | 3.09 nM | substantial efficacy | 1.23 nM | full agonist | 58.9 nM | 51.3 nM | 10.2 nM | 12.3 nM | weak efficacy | 10 ± 1.5% | 0.000649 s⁻¹ | 443000 M⁻¹ s⁻¹ | 1.54 ± 0.2 nM |  |  |  | 
Cc1cc(CCCc2cc(O)c[n+]([O-])c2)ccc1Cl [OX04954] | 4.07 nM |  | 1.32 nM |  | 28.2 nM |  | 6.76 nM | 7.59 nM |  | 71 ± 1.3% |  |  | 1.83 ± 0.31 nM | no significant change | 93.3 nM | 0.000429 s⁻¹ | 254000 M⁻¹ s⁻¹
